Assay results published in US20150133492A1, “N-desmethyldauricine, A Novel Autophagic Enhancer for Treatment of Cancers and Neurodegenerative Conditions Thereof” (Macau University of Science and Technology, priority 2013, published 2015).

Key:
LC3 = test: Western blot of autophagic marker LC3 conversion and autophagic flux; format: cell-based, human; settings: HeLa
Protocol: (§1) After N-desmethyldauricine treatments, HeLa cancer cells were harvested and lysed in RIPA buffer (Cell Signaling Technologies Inc. (Beverly, Mass.). The cell lysates were then resolved by SDS-PAGE. After electrophoresis, the proteins from SDS-PAGE were transferred to nitrocellulose membrane which was then blocked with 5% non-fat dried milk for 60 minutes. The membrane was then incubated with LC3 primary antibodies (1:1000) in TBST overnight at 4° C. After that, the membrane was further incubated with HRP-conjugated secondary antibodies for 60 minutes. Finally, protein bands were visualized by using the ECL Western Blotting Detection Reagents (Invitrogen, Paisley, Scotland, UK).
as §1, with “treatments in the presence or absence of lysosomal inhibitor 10·M of E64d/Pepstatin A,” for “treatments,”, “Inc., Beverly,” for “Inc. (Beverly,”, “Finally, protein bands were visualized by using the ECL Western Blotting Detection Reagents (Invitrogen, Paisley, Scotland, UK).” left out

[1] = system: autophagy deficient cells (Atg7−/−); test: Annexin V flow cytometry cell death, Atg7 deficient MEFs; format: cell-based, mouse; settings: 10 μM, 24 h
Protocol: Cell viability was measured using an annexin V staining kit (BD Biosciences, San Jose, Calif., USA). Briefly, Atg7 wild-type (Atg7^+/+ or Atg7-wt) and Atg7 deficient (Atg7^−/− or Atg7-ko) mouse embryonic fibroblasts (MEFs) were treated with the 10 μM N-desmethyldauricine for 24 h. Cells were then harvested and analysed by multiparametric flow cytometry using FITC-Annexin V and Propidium iodide staining (BD Biosciences, San Jose, Calif., USA) according to the manufacturer's instructions. Flow cytometry was then carried out using a FACSCalibur flow cytometer (BD Biosciences, San Jose, Calif., USA). Data acquisition and analysis was performed with CellQuest (BD Biosciences, San Jose, Calif., USA). Data were obtained from three independent experiments.

[2] = system: AMPK-mTOR signaling pathway; test: Western blot of mTOR signaling marker proteins; format: cell-based, human; settings: HeLa
Protocol: HeLa cells treated with indicated time and concentrations of N-desmethyldauricine were harvested and lysed in RIPA buffer (Cell Signaling). The cell lysates were then resolved by SDS-PAGE. After electrophoresis, the proteins from SDS-PAGE were transferred to nitrocellulose membrane which was then blocked with 5% non-fat dried milk for 60 minutes. The membrane was then incubated with P-p70S6K, p70S6K, P-AMPK, AMPK and actin primary antibodies (1:1000) in TBST overnight at 4° C. respectively. After that, the membrane was further incubated with HRP-conjugated secondary antibodies for 60 minutes. Finally, protein bands were visualized by using the ECL Western Blotting Detection Reagents (Invitrogen).

[3] = system: mutant huntingtin overexpressed PC 12 cells; test: Viability of mutant huntingtin overexpressed PC 12 cells; format: cell-based; settings: PC 12, 7.5 μM
Protocol: For cell viability assay measured by crystal violet staining, PC-12 cells were incubated in 35 mm disc followed by the addition of N-desmethyldauricine at 7.5 μM for 24 hours. The cells were then incubated with crystal violet for 10 minutes followed by a ddH2O wash. The stained cells image was captured by CCD digital camera Spot RT3™ under the Nikon ECLIPSE 80i microscope with 4× magnification. Cell viability was quantified by dissolving stained cells in 10% acetic acid (200 μL/well). The colorimetric reading of the solute mixture was then determined by spectrophotometer at OD 560 nm. The percentage of cell viability was calculated using the following formula: Cell viability (%)=Cells numbertreated/Cells numberDMSO control×100. Data was obtained from three independent experiments.
PC 12 cells were transfected transiently with EGFP-HDQ23/55/74 (Q23, Q55, Q74) plasmids for 24 hours using Lipofectamine Plus LTX reagent (Invitrogen) according to the manufacturer's protocol. The transfected cells were then treated with N-desmethyldauricine for 24 hours. The removal of mutant huntingtin, (Q23, Q55, Q74) were then quantitated by immunoblotting with antibody against EGFP.

[4] = system: wild type Atg7 cells (Atg7+/+) mouse embryonic fibroblasts; test: GFP-LC3 puncta in Atg7 wild-type MEFs; format: cell-based
Protocol: (§2) GFP-LC3 puncta formation was quantified as previously described^15. In brief, both Atg7 wild-type and deficient mouse embryonic fibroblasts (MEFs) grown on coverslips in a 6-well plate were treated with indicated concentrations of N-desmethyldauricine. Both Atg7 wild-type and deficient mouse embryonic fibroblasts were then fixed in 4% paraformaldehyde for 20 minutes at room temperature and then rinsed with PBS. Slides were mounted with FluorSave™ mounting media (Calbiochem, San Diego, Calif.) and examined by fluorescence microscopy. The number of GFP-positive cells with GFP-LC3 puncta formation was examined under the Nikon ECLIPSE 80i microscope. Representative images were captured with CCD digital camera Spot RT3™ (Diagnostic Instruments, Inc., Melville, N.Y.). To quantify for autophagy, the percentage of cells with punctate GFP-LC3 fluorescence was calculated by counting the number of the cells with punctate GFP-LC3 fluorescence in GFP-positive cells. A minimum of 150 cells from 3 randomly selected fields was scored.

[5] = system: Atg7-knockout (Atg7−/−) mouse embryonic fibroblasts; test: GFP-LC3 puncta in Atg7 deficient MEFs; format: cell-based
Protocol: as §2

[6] = system: human normal liver cells (LO2); test: MTT cytotoxicity assay, normal liver cells; format: cell-based; settings: read-out: IC50, cytotoxic effect
Protocol: The test compound of N-desmethyldauricine was dissolved in DMSO at a final concentration of 100 mmol/L and stored at −20° C. Cytotoxicity was assessed using the 3-(4,5-dimethylthiazol-2-yl)-2,5-diphenyltetrazolium bromide assay as previously described^17. Cell number, 4000-8000 of HeLa (human cervical cancer), MCF-7 (human breast cancer), HepG2 (human liver cancer), Hep3B (human liver cancer), H1299 (human lung cancer), A549 (human lung cancer), PC3 (human prostate cancer), LLC-1 (mouse Lewis lung carcinoma) and LO2 (human normal liver) cells were seeded on 96-well plates per well, respectively. After overnight pre-incubation, the cells were exposed to different concentrations of N-desmethyldauricine (namely […], 0.039 μmol) for 3 days. Subsequently, 10 μL of MTT reagents was added to each well and incubated at 37° C. for 4 hours followed by the addition of 100 μL solubilization buffer (10% SDS in 0.01 mol/L HCl) and overnight incubation. Absorbance at 585 nm was determined from each well on the following day. The percentage of cell viability was calculated using the following formula: Cell viability (%)=Cells number treated/Cells number DMSO control×100. Data was obtained from three independent experiments.

COc1cc2c(cc1OC)[C@@H](Cc1ccc(Oc3cc(C[C@H]4NCCc5cc(OC)c(OC)cc54)ccc3O)cc1)N(C)CC2 [N-desmethyldauricine]
autophagic marker LC3-II conversion (LC3; western blot): induced
LC3-II conversion in the presence of lysosomal inhibitor (LC3; with E64d/Pepstatin A): further enhance
cell death [1]: not
p70S6K phosphorylation [2]: concomitant reduction
phosphorylation of AMPK ([2]; time dependent): activate
cell viability of mutant huntingtin overexpressed PC 12 cells [3]: enhance the cell viability
huntingtin aggregates-mediated cytotoxicity [3]: reduce
GFP-LC3 puncta formation [4]: induce GFP-LC3 puncta formation
GFP-LC3 puncta formation [5]: not
IC50 [6]: > 62.1 µM
